What was measured:
Assay type in all cases: binding
[1] = target: T1, transferrin iron complex (holo-Transferrin (hTf), human) (Homo sapiens, UniProt P02787); assay: Evaluation D: capture of iron ions from transferrin iron complex; settings: for hTf residual ratio (%): relative to non-treated holo-Transferrin, 24 hours with 5 mM chelator solution; for Absorbance (466 nm): transferrin fraction after 24 hours at room temperature with 5 mM chelator solution and 50 μM transferrin iron complex solution, ultrafiltration
T1 construct: purchased Sigma Corporation T0665-50MG
Protocol: Evaluation was carried out by the following evaluation method D with respect to properties whether iron ions were captured from the transferrin iron complex (transferrin iron complex in which transferrin is chelated to iron ions) by the iron chelating agent according to Examples 1 to 2.
The iron chelating agent according to Example 1 was dissolved in 1×D-PBS (pH 7.2) to prepare an iron chelating agent solution (“Fe-Ser•Na (5 mM)”) having an iron chelating agent concentration of 5 mM, in the same manner as the preparation method of the iron chelating agent in evaluation A of the iron chelating agent.
Further, as described above, the iron chelating agent according to Example 2 was dissolved in 1×D-PBS (pH 7.2) to prepare an iron chelating agent solution (“Fe-His•Na (5 mM)”) having an iron chelating agent concentration of 5 mM.
Further, 800 mM HEDTA solution as the iron chelating agent according to Comparative Example 3 was prepared as described above. 13.76 g of crystals were taken in a 50 mL conical tube, 25 mL of Milli-Q water was added and dissolution performed, and then adjustment to pH 7.0 was performed using concentrated hydrochloric acid (35 to 37%) and the total amount was adjusted to 50 mL using Milli-Q water (HEDTA solution (800 mM)). HEDTA solution (“HEDTA solution (5 mM)”) having a concentration of HEDTA of 5 mM was prepared using 1×D-PBS (pH 7.2).
Further, 800 mM solution (pH 7.0) was prepared by using NTA2Na and NTA3Na as iron chelating agents according to Comparative Example 1 as described above. 9.4 g of NTA2Na was dissolved in Milli-Q water and the total volume was made up to 50 mL (referred to as “NTA2Na solution (800 mM)” in some cases). Meanwhile, 11.0 g of NTA3Na was dissolved in Milli-Q water and the total volume was made up to 50 mL (“NTA3Na solution (800 mM)”). NTA2Na solution (800 mM) (pH 6.3) and NTA3Na solution (800 mM) (pH 11.3) were mixed to produce 800 mM of NTA solution with pH 7.0. NTA solution (“NTA solution (5 mM)”) having a concentration of NTA of 5 mM was prepared by using 1×D-PBS (pH 7.2).
A commercially available transferrin iron complex (holo-Transferrin (hTf), human, Code T0665-50MG, Lot 095K1633, manufactured by Sigma Corporation) was dissolved in 1×D-PBS (pH 7.2) to prepare a transferrin iron complex solution having a concentration of iron ions (iron ions which are transferrin-bound iron) of 50 μM.
50 μl of 50 μM transferrin iron complex solution was taken in a 1.5 mL sample tube, 50 μl of each of iron chelating agent solutions (Fe-Ser•Na (5 mM), Fe-His•Na (5 mM), NTA solution (5 mM), HEDTA solution (5 mM)) was added thereto and left at room temperature under light shielding for 24 hours. 50 μl of various reaction liquids was taken in a centrifugal ultrafiltration unit (trade name “Amicon Ultra-4 Ultracel-30k” UFC8030, manufactured by Millipore Corporation), and 450 μl of 1×D-PBS (pH 7.2) was added thereto, centrifugation was carried out at 3,500 rpm and 20° C. for 30 minutes, and transferrin and each low molecular chelating agents were separated (first time). After centrifugation, the filtrate was discarded. 450 μl of 1×D-PBS (pH 7.2) was added again to the solution (about 50 μl) containing transferrin concentrated in a unit and centrifugation was carried out with the same conditions (second time). A solution containing transferrin concentrated in a unit was recovered after the second time of centrifugation and the absorbance at the wavelength of 466 nm was measured using a spectrophotometer (trade name “Spectrophotometer DU 640”, manufactured by Beckman Coulter).

[2] = tested on: iron citrate complex ammonium salt (FAC); assay: Evaluation C: chelating ability in MOPS/acetonitrile solvent, FAC solution
Protocol: (§1) Evaluation was carried out by the following evaluation method C as to whether or not the iron chelating agent according to Examples 1 to 3 had chelating ability with iron in 3-morpholinopropanesulfonic acid (C7H15NO4S;MOPS) and acetonitrile solution as solvents used in high performance liquid chromatography (HPLC).
(§2) 2.09 g of morpholinopropanesulfonic acid (C7H15NO4S; FW=209.26, Code 341-01801, Lot PX013, manufactured by Dojindo/Wako Corporation) was added to a 100 mL Erlenmeyer flask, 80 mL of ultrapure water (pure water produced by an ultrapure water production system manufactured by Millipore Corporation (Milli-Q); “Milli-Q water”) was added thereto and dissolved [pH 4.15 (24.4° C.)]. To this solution, 1N sodium hydroxide solution (1 mol/1 sodium hydroxide solution, Code 192-02175, Lot SEP7274, manufactured by Wako Pure Chemicals Industries) was added in 100 μl portions, the pH was adjusted to 7.0 and further Milli-Q water was made up to 100 mL in a measuring cylinder, whereby 100 mL of MOPS solution (pH 6.99) was prepared.
(§3) An iron chelating agent solution having an iron chelating agent concentration of 50 mM was prepared with respect to the iron chelating agent according to Examples 1 to 3, in the same manner as the preparation method of the iron chelating solution in evaluation A of the iron chelating agent.
(§4) Further, 100 mM of MOPS solution (pH6.99) prepared by the preparation method of the MOPS solution was used.
(§5) Furthermore, a stock solution of acetonitrile (C2H3N, FW=41.05, Code 347-06641, Lot WPI96, manufactured by Dojindo/Wako corporation) was used.
(§6) 13.8 mL of Milli-Q water was taken in a 50 mL conical tube, 1.2 mL of each of the iron chelating agent solutions (Fe-Ser•Na (50 mM), Fe-His•Na (50 mM), Fe-Glu•Na (50 mM)) according to the iron chelating agents of Examples 1 to 3 was added, 1.0 mL of 100 mM MOPS solution was added thereto, and a further 4.0 mL of acetonitrile solution was added to produce an iron chelating solution using MOPS. The iron chelating agent solutions using MOPS and iron chelating agent according to Examples 1 to 3 were defined respectively as Fe-Ser•Na (MOPS solution)” (iron chelating agent according to
(§7) Example 1), “Fe-His•Na (MOPS solution)” (iron chelating agent according to Example 2), and “Fe-Glu•Na(MOPS solution)” (iron chelating agent according to Example 3).
An iron citrate complex ammonium salt solution (FAC solution (20 mM)) having a concentration of iron ions of 20 mM and an iron citrate complex ammonium salt solution (FAC solution (2 mM)) having a concentration of iron ions of 2 mM were prepared, in the same manner as the preparation method of the iron citrate complex ammonium solution in evaluation A of the iron chelating agent.
FAC solution (20 mM) was added to and mixed with each of the iron chelating agent solutions [Fe-Ser•Na (MOPS solution), Fe-His•Na (MOPS solution), Fe-Glu•Na (MOPS solution)] using MOPS.

[3] = tested on: iron nitrilotriacetate complex (Fe-NTA); assay: Evaluation C: chelating ability in MOPS/acetonitrile solvent, Fe-NTA solution
Protocol: as §1, §2, §3, §4, §5, §6, §7
Further, iron nitrilotriacetate complex solution (“Fe-NTA solution (20 mM)”) having a concentration of iron ions of 20 mM and iron nitrilotriacetate complex solution (“Fe-NTA solution (2 mM)”) having a concentration of iron ions of 2 mM were prepared, in the same manner as the preparation method of iron nitrilotriacetate complex solution in evaluation B of the iron chelating agent.
Further, Fe-NTA solution (20 mM) was added to and mixed with each of the iron chelating agent solutions [Fe-Ser•Na (MOPS solution), Fe-His•Na (MOPS solution), Fe-Glu•Na (MOPS solution)] using MOPS. […] Further, Fe-NTA solution (2 mM) was added and mixed thereto as described above.

[4] = FAC solution (2 mM) added to chelating agent MOPS solution (MOPS, acetonitrile)
[5] = FAC solution (20 mM) added to chelating agent MOPS solution (MOPS, acetonitrile)
[6] = Fe-NTA solution (2 mM) added to chelating agent MOPS solution (MOPS, acetonitrile)
[7] = Fe-NTA solution (20 mM) added to chelating agent MOPS solution (MOPS, acetonitrile)

T1 sequence (P02787 20-698, one chain of several): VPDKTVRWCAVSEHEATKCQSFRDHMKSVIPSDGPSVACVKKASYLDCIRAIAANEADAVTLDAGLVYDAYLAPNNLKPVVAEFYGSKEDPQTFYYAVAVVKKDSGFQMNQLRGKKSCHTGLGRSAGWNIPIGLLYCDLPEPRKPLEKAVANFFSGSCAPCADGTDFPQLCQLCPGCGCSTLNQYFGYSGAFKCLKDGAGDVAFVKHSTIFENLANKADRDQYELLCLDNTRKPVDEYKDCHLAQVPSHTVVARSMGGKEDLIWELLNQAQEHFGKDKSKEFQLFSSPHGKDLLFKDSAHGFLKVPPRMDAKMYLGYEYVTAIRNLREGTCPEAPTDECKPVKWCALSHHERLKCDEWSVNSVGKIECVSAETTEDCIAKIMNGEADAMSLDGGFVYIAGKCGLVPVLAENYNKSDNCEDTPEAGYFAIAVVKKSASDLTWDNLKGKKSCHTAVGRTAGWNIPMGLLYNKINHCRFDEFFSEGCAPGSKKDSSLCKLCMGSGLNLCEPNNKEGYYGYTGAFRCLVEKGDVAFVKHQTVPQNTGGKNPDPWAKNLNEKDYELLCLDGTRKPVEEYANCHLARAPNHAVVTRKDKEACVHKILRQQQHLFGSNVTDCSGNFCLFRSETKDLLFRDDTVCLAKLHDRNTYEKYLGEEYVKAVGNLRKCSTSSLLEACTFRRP

Compound	hTf residual ratio (%) [1]	Absorbance (466 nm) [1]	colour of the solution after mixing [2, 4]	colour of the solution after mixing [2, 5]	colour of the solution after mixing [3, 6]	colour of the solution after mixing [3, 7]
O=C(O)CN(CC(=O)O)CC(=O)O [Comparative Example 1, nitrilotriacetic acid, reference compound]	79.59%	0.0589	–	–	–	–
O=C(O)C(Cc1c[nH]cn1)NCc1ccccc1O (centres unmarked) [Example 2, o-[(1-carboxy-2-(1H-imidazol-4-yl)ethyl)-amino-methyl]-phenol]	83.78%	0.0620	dark brown-colored	dark brown-colored	dark brown-colored	dark brown-colored
NC(=O)CCC(NCc1ccccc1O)C(=O)O (centres unmarked) [Example 3, o-[(1-carboxy-2-carbamoylmethylethyl)-amino-methyl]-phenol]	–	–	dark brown-colored	dark brown-colored	dark brown-colored	dark brown-colored
N-(2-hydroxyethyl)-ethylenediamine triacetic acid [Comparative Example 3, reference compound]	69.59%	0.0515	–	–	–	–

Source: US8623661B2, “Iron chelating agent, method for producing same, method for determining amount of iron ions and method for trapping iron ions” (National University Corporation Asahikawa Medical College, priority 2008, dated 2014)
